Source: ChEMBL document CHEMBL2094260, “Malaria Box Tuberculosis Screening Data”

Key:
[1] = test system: Mycobacterium tuberculosis; assay: MMV: Screen against Mtb, single point, replicating, at 25uM; assay type: functional
[2] = test system: Mycobacterium tuberculosis; assay: MMV: Screen against Mtb, single point, non replicating, at 25uM; assay type: functional

Row | SMILES | inhibition at 25 µM [1] | inhibition at 25 µM [2]
1 | COc1ccc(Nc2nc(N/N=C/c3ccc(O)cc3)nc(Nc3ccc([N+](=O)[O-])cc3)n2)cc1 | 15.3% | 31.8%
2 | CCCCCCc1cc2cc(-c3nc4ccccc4[nH]3)c(=Nc3ccccc3C)oc2cc1O | 4.31% | 28.5%
3 | Oc1ccc(Br)cc1CN1CCN(Cc2cccc(F)c2)CC1 | 28.5% | -1.58%
4 | CCOc1c(Br)cc(C2C(C(=O)OC)=CN(C)C=C2C(=O)OC)cc1OC | 7.76% | 14.1%
5 | Cc1ccc(-c2cc3nc4c(c(O)n3n2)CCCC4)cc1 | 14% | 21.5%
6 | CCC1(C)CC(CCNCc2ccccc2O)(c2ccc(C)cc2)CCO1 (configuration not stated) | 14.5% | 2.96%
7 | COc1ccc2c(=O)cc(C(Cl)(Cl)Cl)oc2c1 | 25.3% | 18.3%
8 | O=C(Nc1ccc(-c2nc3cc(NC(=O)c4ccc(Cl)cc4)ccc3[nH]2)cc1)c1ccc(Cl)cc1 | 11.7% | 17.6%
9 | COc1ccc(CCN2C(=O)c3[nH]nc(-c4cc(Cl)c(C)cc4O)c3C2c2ccccc2F)cc1 (configuration not stated) | -0.705% | 16.2%
10 | O=C1CC(O)(C(F)(F)C(F)(F)F)Oc2ccccc21 (configuration not stated) | 13% | 39.1%
11 | CC1(c2ccccc2)Nc2ccccc2-c2nc3ccccc3n21 (configuration not stated) | 8.87% | 12%
12 | O=C(Nc1ccc(CN2CCOCC2)cc1)c1ccc(-c2ccc(Br)cc2)o1 | 26% | 24.4%
13 | CCOC(=O)c1cnc2ccc(OC)cc2c1NCc1ccccc1 | 40.2% | 23%
14 | Cc1ccc(S(=O)(=O)c2c(COC(=O)c3cccc(C)c3)c(-c3ccccc3)nn2C)cc1 | 9.01% | 8.24%
15 | COc1ccc(CCNC(=O)c2cc(S(=O)(=O)N3CC(C)CC(C)C3)ccc2Sc2ccc(F)cc2)cc1OC (configuration not stated) | -6.51% | 22.6%
16 | Cc1ccc(CSCc2ccc(C(=O)NC3CC3)o2)cc1 | 24.4% | 11.3%
17 | CCCCc1c(CCC)c(=N)c2ccccc2n1C | 6.04% | -5.96%
18 | COCCNC(=O)c1ccc(OC2CCN(Cc3ccc(F)c(F)c3)CC2)c(Cl)c1 | 12.7% | 14.1%
19 | Cc1ccnc(NC(c2cccc(OCc3ccccc3)c2)c2ccc3cccnc3c2O)c1 (configuration not stated) | 6.19% | 22.3%
20 | Cc1cc(NC(=O)c2ccc(-c3ccccc3)cc2)no1 | 8.72% | 13.8%
21 | Cc1cc(=O)oc2c1ccc1oc(C(=O)c3ccccc3)c(C)c12 | 13.4% | 21.4%

Row | SMILES | inhibition at 25 µM [1] | inhibition at 25 µM [2]
22 | Cc1cc(C)c2c(c1)OCN(Cc1ccccc1Cl)C2 | 9.78% | 12%
23 | COc1cccc(C(=O)NC(c2ccc(C)cc2)c2cc(Cl)c3cccnc3c2O)c1 (configuration not stated) | 10.4% | 14.3%
24 | CN1CCN(c2ncnc3c2[nH]c2ccc(Cl)cc23)CC1 | 23.9% | 1.91%
25 | COc1ccc(CN2CCN(Cc3ccccc3)CC2)c(O)c1 | 0.392% | -5.78%
26 | O=C(Nc1ccc(CN2CCOCC2)cc1)c1ccc(-c2cc(Cl)ccc2Cl)o1 | 17.1% | 14.5%
27 | COc1ccc2c(c1)OC(O)(C(F)(F)C(F)(F)F)CC2=O (configuration not stated) | 23.4% | 20.1%
28 | Cc1c(C)n(CC(O)CNC2CCCCC2C)c2ccccc12 (configuration not stated) | 24.7% | 7.84%
29 | CCCCc1c(C)nc2c(OC)cccc2c1O | 26.3% | 6.62%
30 | c1ccc(-c2ccc(-c3nc4ccccc4[nH]3)cc2)cc1 | 20.6% | 0.513%
31 | COc1cccc(C2(C)Nc3ccccc3-c3nc4ccccc4n32)c1 (configuration not stated) | 14.9% | 8.19%
32 | CN1CCN(c2nc(Nc3ccc(O)cc3)nc3ccccc23)CC1 | 8.7% | 6.46%
33 | COc1ccc(N2CCN(C(CNC(=O)C3CCCCC3)c3ccc4c(c3)OCO4)CC2)cc1 (configuration not stated) | -3.89% | 0.862%
34 | CCOC(=O)c1c[nH]c2c(CC)cccc2c1=O | 4.62% | 11.1%
35 | O=C(c1ccccc1F)N(Cc1ccc(Cl)cc1)c1ccccn1 | 9.78% | 5.4%
36 | COc1ccc(-c2c(C)nn3c(N)c(C#N)cnc23)cc1OC | 5.83% | 11.5%
37 | COc1ccc(C2Sc3ccccc3N=C3C2=C(O)c2ccccc23)cc1 (configuration not stated) | 8.41% | -1.58%
38 | CC(C)c1ccc(CNCC(O)c2ccccc2)cc1 (configuration not stated) | 30.9% | 11.7%
39 | CC(C)OCc1cc(CN2CCN(c3cccc(Cl)c3)CC2)c(O)c2ncccc12 | 9.32% | 11.7%
40 | CN(C)c1ccc(-c2nc3cc(N)ccc3[nH]2)cc1 | -1% | 16.4%
41 | O=C(Nc1ccccc1O)c1ccc(-c2ccc(Cl)cc2Cl)o1 | 13.7% | 27.6%
42 | COc1ccc(-n2ccnc2SCC(=O)Nc2cc(C)ccc2C)c(OC)c1 | 2.95% | 8.89%

Row | SMILES | inhibition at 25 µM [1] | inhibition at 25 µM [2]
43 | CC1=C(CC(=O)c2cccc([N+](=O)[O-])c2)C(=O)c2ccccc2C1=O | 40.5% | 20.1%
44 | CCCCCCC(O)(c1ccc(F)cc1)C(CN1CCOCC1)c1ccccc1 (configuration not stated) | 3.84% | 19.8%
45 | CCN(CC)CCCNc1ccnc2cc3ccccc3cc12 | 8.7% | 14.6%
46 | CCCc1c(C)nc2ccccc2c1O | 15.9% | 9.94%
47 | Cc1ccc(-c2nc3ccccc3o2)cc1NCc1cc(Cc2ccccc2)ccc1O | 1.18% | 10.4%
48 | Cc1sc(NC(=O)c2ccccc2)c(C(c2cccs2)N2CCN(c3ccccc3)CC2)c1C (configuration not stated) | 7.6% | 13%
49 | Cc1ccc(OCCCCCCNCCO)c(C)c1 | 17.5% | 13%
50 | Cc1ccc(C(=O)c2oc3ccc4c(C)cc(=O)oc4c3c2C)cc1 | 1.18% | 5.4%
51 | CCOc1ccccc1CN1CCc2nc3cc(C(C)(C)C)nn3c(O)c2C1 | 13.9% | 1.04%
52 | O=C(NCc1ccco1)C1CCN(S(=O)(=O)c2ccc(Br)cc2)CC1 | 13% | 10.5%
53 | CCN(CC)CCNc1ccnc2cc3ccccc3cc12 | 0.862% | 0.0721%
54 | CN1C=C(c2ccc3ccccc3n2)C(c2c[nH]c3ccccc23)c2ccccc21 (configuration not stated) | 19.7% | 20.1%
55 | Cc1cc(C=C2SC(=Nc3ccccc3)N(C3CCCC3)C2=O)c(C)n1-c1ccc(Cl)cc1 | 2.04% | -1.41%
56 | COc1ccc(C=C2SC(Nc3ccc(F)cc3)=NC2=O)c(OC)c1 | 23.3% | 7.53%
57 | COc1cccc(O)c1CN1CCC2(CCCN(Cc3ccc(F)cc3)C2)C1 (configuration not stated) | 18% | 16.4%
58 | COc1cc(OC)c(N(C)C(=O)c2cc3c(s2)-c2ccccc2S(=O)(=O)C3)cc1Cl | 38% | 6.97%
59 | COc1cccc(NC(=O)[C@H](C(C)C)n2c(=O)[nH]c3ccccc3c2=O)c1 | 7.35% | 5.22%
60 | COc1ccccc1CNC(=O)C1c2ccccc2C(=O)N(CC(C)C)C1c1cccs1 (configuration not stated) | 15.7% | 9.76%
61 | O=C(Nc1cccc(C2=NCCN2)c1)Nc1cccc(C2=NCCN2)c1 [IMIDOCARB] | 5.56% | 11.1%
62 | COc1cccc(Cn2c(Oc3ccccc3)nc3c2c(=O)n(C)c(=O)n3C)c1 | 3.71% | -1.06%
63 | O=C(Nc1ccsc1C(=O)NC1CCCCC1)c1ccc(F)cc1 | 3.4% | 20.6%

Row | SMILES | inhibition at 25 µM [1] | inhibition at 25 µM [2]
64 | CCCCC(O)(c1ccc(Cl)cc1)C(CN1CCOCC1)c1ccc(Cl)cc1 (configuration not stated) | 17.3% | 15.2%
65 | FC(F)(F)c1cccc(Nc2nc(-c3ccccc3)nc3ncccc23)c1 | 1.43% | 7.32%
66 | CCN(CC)CCNc1ncnc2c1[nH]c1ccc(Br)cc12 | 20.6% | 13.4%
67 | CC1CC(C)CN(C(=O)c2ccc(Cl)cc2Cl)C1 (configuration not stated) | 14.8% | 9.59%
68 | CC(=O)NCCc1nc2ccccc2n1Cc1ccc(C(C)C)cc1 | 2.04% | 8.72%
69 | CC1CCN(Cc2c(O)ccc3cc(-c4nc5ccccc5s4)c(=O)oc23)CC1 | 8.23% | 12%
70 | COc1cc(SC)ccc1C(=O)N1CCCC(C)C1 (configuration not stated) | 17.4% | 8.89%
71 | O=c1nc(C=Cc2ccc(Br)cc2)oc2ccccc12 | 20.6% | -13.3%
72 | OC1=C2C(=Nc3ccccc3SC2c2ccc(Br)cc2)c2ccccc21 (configuration not stated) | -4.78% | 0.604%
73 | C=C(C)CCC(C)N1CCC(N2CCC(C(=O)NCCc3ccccc3)CC2)CC1 (configuration not stated) | -4.8% | 15.2%
74 | CCN1CCCC1CNc1[nH]cnc2c3cc(Cl)ccc3nc1-2 (configuration not stated) | 0.0616% | 4.53%
75 | CC1CN(C(=O)c2sc3ccccc3c2Cl)CC(C)O1 (configuration not stated) | 15.5% | 22.9%
76 | C=CC12CCN(CC1)C(C(O)c1ccnc3ccc(OC)cc13)C2 (configuration not stated) | 27.2% | 18.8%
77 | O=C(NC1CCN(Cc2ccccc2)CC1)c1cc2nc(-c3ccc(Cl)s3)cc(C(F)(F)F)n2n1 | 20.1% | 15.3%
78 | CCCCCCc1cc2cc(-c3csc(C=Cc4ccccc4)n3)c(=O)oc2cc1O | -0.392% | 9.83%
79 | Clc1ccc2[nH]c3c(NCCCN4CCOCC4)ncnc3c2c1 | 16.2% | 21.6%
80 | Fc1ccc2[nH]c3c(NCCCN4CCOCC4)ncnc3c2c1 | 13.6% | 13.8%
81 | O=C(CCc1ccccc1)c1ccccc1OCC(O)CN1CCCCC1 (configuration not stated) | 12.9% | 0.25%
